From US7253192B2, “Phenyl derivatives comprising an acetylene group” (Hoffmann-La Roche Inc., priority 2004, dated 2007)

Experiments:
PPARγ = target: T1, PPARγ (Mus musculus, UniProt P37238); test: Radioligand binding assay (SPA), PPARγ receptor binding; conditions: GST-PPARγ-LBD fusion protein, scintillation proximity radioligand binding
T1 construct: PPARγ (aa 174 to 476); made in house; host or cells: E. coli BL21 (pLysS)
T1 sequence (P37238 204-505): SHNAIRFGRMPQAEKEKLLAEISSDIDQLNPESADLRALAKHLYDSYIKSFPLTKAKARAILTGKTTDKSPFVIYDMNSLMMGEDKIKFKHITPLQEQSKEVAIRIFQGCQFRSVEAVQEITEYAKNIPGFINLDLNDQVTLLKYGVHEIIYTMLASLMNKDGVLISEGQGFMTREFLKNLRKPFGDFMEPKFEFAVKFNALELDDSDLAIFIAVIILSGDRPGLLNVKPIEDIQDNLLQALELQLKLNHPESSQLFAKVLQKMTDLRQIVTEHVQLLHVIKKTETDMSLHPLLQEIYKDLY
From the text: (§1) Full-length cDNA clones for humans PPARδ and PPARα and mouse PPARγ were obtained by RT-PCR from human adipose and mouse liver cRNA, respectively, cloned into plasmid vectors and verified by DNA sequencing. Bacterial and mammalian expression vectors were constructed to produce glutathione-s-transferase (GST) and Gal4 DNA binding domain proteins fused to the ligand binding domains (LBD) of PPARδ (aa 139 to 442), PPARγ (aa 174 to 476) and PPARα (aa 167 to 469). To accomplish this, the portions of the cloned sequences encoding the LBDs were amplified from the full-length clones by PCR and then subcloned into the plasmid vectors. Final clones were verified by DNA sequence analysis.
(§2) Induction, expression, and purification of GST-LBD fusion proteins were performed in E. coli strain BL21 (pLysS) cells by standard methods (Ref: Current Protocols in Molecular Biology, Wiley Press, edited by Ausubel et al.).
PPARγ receptor binding was assayed in TKE50 (50 mM Tris-HCl, pH 8, 50 mM KCl, 2 mM EDTA, 0.1 mg/ml fatty acid-free BSA and 10 mM DTT). For each 96 well reaction an 140 ng equivalent of GST-PPARγ-LBD fusion protein was bound to 10 μg SPA beads (PharmaciaAmersham) in a final volume of 50 μl by shaking. The resulting slurry was incubated for 1 h at RT and centrifuged for 2 min at 1300 g. The supernatant containing unbound protein was removed and the semidry pellet containing the receptor-coated beads was resolved in 50 ul of TKE. For radioligand binding e.g. 10000 dpm 2(S)-(2-benzoyl-phenylamino)-3-{4-[1,1-ditritio-2-(5-methyl-2-phenyl-oxazol-4-yl)-ethoxy]-phenyl}-propionic acid in 50 μl were added, the reaction incubated at RT for 1 h and scintillation proximity counting performed. All binding assays were performed in 96 well plates and the amount of bound ligand measured on a Packard TopCount using OptiPlates (Packard). Nonspecific binding was determined in the presence of 10^−4 M unlabelled compound. Dose response curves were done in triplicates within a range of concentration from 10^−10 M to 10^−4 M.

PPARα = target: T2, PPARα (Homo sapiens, UniProt Q07869); test: Radioligand binding assay (SPA), PPARα receptor binding; conditions: GST-PPARα-LBD fusion protein, scintillation proximity radioligand binding
T2 construct: PPARα (aa 167 to 469); made in house; host or cells: E. coli BL21 (pLysS)
T2 sequence (Q07869 167-468 limits assumed): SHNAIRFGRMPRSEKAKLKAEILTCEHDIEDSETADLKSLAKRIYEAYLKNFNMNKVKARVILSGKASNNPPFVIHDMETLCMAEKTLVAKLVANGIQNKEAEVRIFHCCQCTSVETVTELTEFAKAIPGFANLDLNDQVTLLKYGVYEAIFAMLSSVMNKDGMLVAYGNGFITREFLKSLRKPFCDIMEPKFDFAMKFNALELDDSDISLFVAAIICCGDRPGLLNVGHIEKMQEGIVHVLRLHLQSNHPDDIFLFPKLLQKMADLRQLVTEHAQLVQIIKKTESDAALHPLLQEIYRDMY
From the text: as §1, §2
PPARα receptor binding was assayed in TKE50 (50 mM Tris-HCl, pH 8, 50 mM KCl, 2 mM EDTA, 0.1 mg/ml fatty acid-free BSA and 10 mM DTT). For each 96 well reaction an 140 ng equivalent of GST-PPARα-LBD fusion protein was bound to 10 μg SPA beads (PharmaciaAmersham) in a final volume of 50 μl by shaking. The resulting slurry was incubated for 1 h at RT and centrifuged for 2 min at 1300 g. The supernatant containing unbound protein was removed and the semidry pellet containing the receptor-coated beads was resolved in 50 μl of TKE. For radioligand binding e.g. 10000 dpm of 2(S)-(2-benzoyl-phenylamino)-3-{4-[1,1-ditritio-2-(5-methyl-2-phenyl-oxazol-4-yl)-ethoxy]-phenyl}-propionic acid or 2,3-ditritio-2(S)-methoxy-3-{4-[2-(5-methyl-2-phenyl-oxazol-4-yl)-ethoxy]-benzo [b]thiophen-7-yl}-propionic acid in 50 ul were added, the reaction incubated at RT for 1 h and scintillation proximity counting performed. All binding assays were performed in 96 well plates and the amount of bound ligand measured on a Packard TopCount using OptiPlates (Packard). Nonspecific binding was determined in the presence of 10^−4 M unlabelled compound. […]

PPARδ = target: T3, PPARδ (Homo sapiens, UniProt Q03181); test: Radioligand binding assay (SPA), PPARδ receptor binding; conditions: GST-PPARδ-LBD fusion protein, scintillation proximity radioligand binding
T3 construct: PPARδ (aa 139 to 442); made in house; host or cells: E. coli BL21 (pLysS)
T3 sequence (Q03181 139-441 limits assumed): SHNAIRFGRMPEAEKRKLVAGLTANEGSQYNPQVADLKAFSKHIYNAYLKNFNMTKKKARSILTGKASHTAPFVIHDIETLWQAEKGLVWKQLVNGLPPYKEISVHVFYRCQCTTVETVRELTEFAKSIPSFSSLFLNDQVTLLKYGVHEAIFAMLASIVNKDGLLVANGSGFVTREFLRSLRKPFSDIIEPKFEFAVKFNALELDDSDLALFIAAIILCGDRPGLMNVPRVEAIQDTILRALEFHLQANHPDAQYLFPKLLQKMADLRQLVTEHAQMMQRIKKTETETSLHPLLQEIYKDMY
From the text: as §1, §2
PPARδ receptor binding was assayed in HNM10 (50 mM Hepes, pH 7.4, 10 mM NaCl, 5 mM MgCl2, 0.15 mg/ml fatty acid-free BSA and 15 mM DTT). For each 96 well reaction a 500 ng equivalent of GST-PPARδ-LBD fusion protein and radioligand, e.g. 20000 dpm {2-methyl-4-[4-methyl-2-(4-trifluoromethyl-phenyl)-thiazol-5-yl-ditritiomethylsulfanyl]-phenoxy}-acetic acid, was bound to 10 μg SPA beads (PharmaciaAmersham) in a final volume of 50 μl by shaking. The resulting slurry was incubated for 1 h at RT and centrifuged for 2 min at 1300 g. The supernatant containing unbound protein was removed and the semidry pellet containing the receptor-coated beads was resuspended in 50 μl of HNM. Radioligand was added and the reaction incubated at RT for 1 h and scintillation proximity counting performed in the presence of test compounds was determined. All binding assays were performed in 96 well plates and the amount of bound ligand was measured on a Packard TopCount using OptiPlates (Packard). Dose response curves were done in triplicates within a range of concentration from 10^−10 M to 10^−4 M.

Row | SMILES | melting point | IC50 (PPARγ) [nM] | IC50 (PPARα) [nM] | IC50 (PPARδ) [nM]
1 | Cc1cc(SCCCC#Cc2ccc(OC(F)(F)F)cc2)ccc1OCC(=O)O [Example 4, {2-Methyl-4-[5-(4-trifluoromethoxy-phenyl)-pent-4-ynylsulfanyl]-phenoxy}-acetic acid] | 94 to 95 °C | > 10000 | 14 | 39
2 | Cc1cc(SCC#Cc2ccc(C(F)(F)F)cc2)ccc1OCC(=O)O [Example 5, {2-Methyl-4-[3-(4-trifluoromethyl-phenyl)-prop-2-ynylsulfanyl]-phenoxy}-acetic acid] | 130 to 131 °C |  |  | 
3 | Cc1cc(SCC#Cc2cccc(C(F)(F)F)c2)ccc1OCC(=O)O [Example 6, {2-Methyl-4-[3-(3-trifluoromethyl-phenyl)-prop-2-ynylsulfanyl]-phenoxy}-acetic acid] | 81 to 82 °C |  |  | 
4 | Cc1cc(SCC#Cc2ccccc2C(F)(F)F)ccc1OCC(=O)O [Example 7, {2-Methyl-4-[3-(2-trifluoromethyl-phenyl)-prop-2-ynylsulfanyl]-phenoxy}-acetic acid] | 95 to 97 °C |  |  | 
5 | Cc1cc(SCC#Cc2ccc(Cl)cc2)ccc1OCC(=O)O [Example 8, {4-[3-(4-Chloro-phenyl)-prop-2-ynylsulfanyl]-2-methyl-phenoxy}-acetic acid] | 106 to 108 °C |  |  | 
6 | COc1ccc(C#CCSc2ccc(OCC(=O)O)c(C)c2)cc1 [Example 9, {4-[3-(4-Methoxy-phenyl)-prop-2-ynylsulfanyl]-2-methyl-phenoxy}-acetic acid] | 143 to 144 °C |  |  | 
7 | Cc1cc(SCC#Cc2ccccc2)ccc1OCC(=O)O [Example 10, [2-Methyl-4-(3-phenyl-prop-2-ynylsulfanyl)-phenoxy]-acetic acid] | 90 to 92 °C |  |  | 
8 | Cc1cc(SCCC#Cc2ccc(C(F)(F)F)cc2)ccc1OCC(=O)O [Example 12, {2-Methyl-4-[4-(4-trifluoromethyl-phenyl)-but-3-ynylsulfanyl]-phenoxy}-acetic acid] | 129 to 130 °C |  |  | 
9 | Cc1cc(OCCCC#Cc2ccc(Cl)c(F)c2)ccc1OC(C)(C)C(=O)O [Example 27, 2-{4-[5-(4-Chloro-3-fluoro-phenyl)-pent-4-ynyloxy]-2-methyl-phenoxy}-2-methyl-propionic acid] | 106 to 107 °C (dec.) |  |  | 
10 | Cc1cc(OCCCC#Cc2cnc(C(F)(F)F)nc2)ccc1OC(C)(C)C(=O)O [Example 28, 2-Methyl-2-{2-methyl-4-[5-(2-trifluoromethyl-pyrimidin-5-yl)-pent-4-ynyloxy]-phenoxy}-propionic acid] | 95 to 97 °C (dec.) |  |  | 
11 | CC(C)(Oc1ccc(CNC(=O)CCC#Cc2ccc(OC(F)(F)F)cc2)cc1)C(=O)O [Example 29, 2-Methyl-2-(4-{[5-(4-trifluoromethoxy-phenyl)-pent-4-ynoylamino]-methyl}-phenoxy)-propionic acid] | 127 to 128 °C (dec.) |  |  | 

The next lines start with the values.

Row | melting point | IC50 (PPARγ) [nM] | IC50 (PPARα) [nM] | IC50 (PPARδ) [nM] | SMILES
12 | 90 to 91 °C (dec.) | > 10000 | 21 | 120 | Cc1cc(OCCCC#Cc2ccc(OC(F)(F)F)cc2)ccc1OC(C)(C)C(=O)O [Example 13, 2-Methyl-2-{2-methyl-4-[5-(4-trifluoromethoxy-phenyl)-pent-4-ynyloxy]-phenoxy}-propionic acid]
13 | 114 to 115 °C (dec.) |  |  |  | Cc1cc(OCCCC#Cc2ccc(C(F)(F)F)cc2)ccc1OC(C)(C)C(=O)O [Example 14, 2-Methyl-2-{2-methyl-4-[5-(4-trifluoromethyl-phenyl)-pent-4-ynyloxy]-phenoxy}-propionic acid]
14 | 119 to 120 °C (dec.) |  |  |  | Cc1cc(OCCCC#Cc2ccc(Cl)cc2)ccc1OC(C)(C)C(=O)O [Example 15, 2-{4-[5-(4-Chloro-phenyl)-pent-4-ynyloxy]-2-methyl-phenoxy}-2-methyl-propionic acid]
15 | 62 to 71 °C (dec.) | > 10000 | 18 | 203 | Cc1cc(OCCC#Cc2ccc(OC(F)(F)F)cc2)ccc1OC(C)(C)C(=O)O [Example 17, 2-Methyl-2-{2-methyl-4-[4-(4-trifluoromethoxy-phenyl)-but-3-ynyloxy]-phenoxy}-propionic acid]
16 | 68 to 69 °C (dec.) |  |  |  | Cc1cc(OCCC#Cc2ccc(Cl)cc2)ccc1OC(C)(C)C(=O)O [Example 18, 2-{4-[4-(4-Chloro-phenyl)-but-3-ynyloxy]-2-methyl-phenoxy}-2-methyl-propionic acid]
17 | 124.6 to 126.7 °C |  |  |  | Cc1cc(OCCCC#Cc2ccc(OC(F)(F)F)cc2)ccc1OCC(=O)O [Example 20, {2-Methyl-4-[5-(4-trifluoromethoxy-phenyl)-pent-4-ynyloxy]-phenoxy}-acetic acid]
18 | 65.5 to 68.5 °C |  |  |  | CC(C)(Oc1ccc(OCCCC#Cc2ccc(OC(F)(F)F)cc2)c(F)c1)C(=O)O [Example 32, 2-{3-Fluoro-4-[5-(4-trifluoromethoxy-phenyl)-pent-4-ynyloxy]-phenoxy}-2-methyl-propionic acid]
19 | 116 to 118 °C |  |  |  | Cc1c(OC(C)(C)C(=O)O)ccc(OCCCC#Cc2ccc(OC(F)(F)F)cc2)c1F [Example 33, 2-{3-Fluoro-2-methyl-4-[5-(4-trifluoromethoxy-phenyl)-pent-4-ynyloxy]-phenoxy}-2-methyl-propionic acid]
